Patent US20140031296A1, “NEW SYNTHETIC PEPTIDES AND THEIR USE” (PERGAMUM AB, priority 2011, published 2014)
Entries after “also recorded” stand apart in the source; their conditions may differ.

Experiments:
[1] = tested on: TNF-α production in LPS stimulated THP-1 cells; assay: Inhibition of TNF-α production in LPS stimulated THP-1 cells (ELISA); type: cell-based, human; conditions: screen 2, mean relative secretion, basal = 0%; for TNF-α at 4 μM peptide / TNF-α at 10 μM peptide: stimulated = 100%; for TNF-α at 40 μM peptide: LPS-stimulated level without peptide = 100%
S. aureus = assay: Antimicrobial effect in infected wounds, ex vivo model on pig skin; conditions: S. aureus in PBS/serum (50/50), peptide in H2O 0.1, 0.5 and 2 mg/ml, single administration, 4 hours
Text: (§1) FIG. 5. Dose response effect of, peptide 232 (SEQ ID NO 78)(A) and peptide 220 (SEQ ID NO 67)(B) on bacterial colonization of infected wounds in pig skin. […] Results are presented as relative bacterial survival (%) compared to control group±SEM (n=10 wounds). Statistical significance was estimated by Student's t test. *=p<0.05, **=p<0.01, ***=p<0.001.
The antimicrobial effects of the peptide 232 (SEQ ID NO: 78), and the peptide 220 (SEQ ID NO:67) were investigated in an ex vivo model on pig skin. The wounds were inoculated with S. aureus in the presence of PBS/Serum 50/50. Two hours after inoculation the wounds were treated with a single administration of the peptide or placebo (H2O). Four hours after the treatment bacteria were harvested and viable counts of each wound were determined.

E. coli (CCUG 31246) = assay: MMC99 assay, E. coli; type: cell-based
Procedure: (§2) The antimicrobial effects of the peptides 232 (SEQ ID NO: 78), and 220 (SEQ ID NO:67) were analysed by MMC99 (minimal microbicidal concentration) assay against S. aureus (CCUG 1800), MRSA (CCUG 41879), P. aeruginosa (ATCC 15442), E. coli (CCUG 31246), S. pyogenes (CCUG 4207), P. acnes (CCUG 1794T), S. epidermidis (ATCC12228), K. pneumoniae (ATCC 13883), A. baumannii (ATCC 19606), and C. albicans (ATCC 64549). The peptides were purchased from Biopeptide Company (San Diego, Calif., USA) and Bachem AG (Bubendorf, Switzerland) and results are presented in Table 8A and 8B respectively.
(§3) Peptides were serially diluted in two different assay medium, 1% BHI medium (brain-heart infusion medium) or 50% heat inactivated simulated wound fluid (SWF), and thereafter incubated with the microorganisms for 2 hours. Drops of the suspension were placed on blood agar plates. The MMC99 values, i.e. the lowest peptide concentration needed to achieve a 99% reduction of viable microorganisms, were recorded. As presented in Table 8, all the peptides have the ability to kill microorganisms frequently appearing in infections.

MRSA (CCUG 41879) = assay: In vivo antimicrobial effect in excision wound model in rats; parameters: species or system rat; conditions: peptide in H2O 0.1, 0.5 and 2 mg/ml, single administration, 2 hours
Text: as §1, with “4. Dose-response” for “5. Dose response”, “of” for “of,”, “infected excision” for “infected”, “rats.” for “pig skin.”, “(n=15” for “(n=10”
The in vivo antimicrobial effects of the peptide 232 (SEQ ID NO: 78), and the peptide 220 (SEQ ID NO:67) were investigated in an excision wound model in rats. The wounds were inoculated with methicillin resistant S. aureus (MRSA) for two hours, followed by a single administration of peptide or control (H2O) for two hours before termination and harvest of the bacteria.

P. acnes (CCUG 1794T) = assay: MMC99 assay, P. acnes; type: cell-based
Procedure: as §2, §3

S. pyogenes (CCUG 4207) = assay: MMC99 assay, S. pyogenes; type: cell-based
Procedure: as §2, §3

Sequence | TNF-α at 4 μM peptide [1] | TNF-α at 10 μM peptide [1] | TNF-α at 40 μM peptide [1] | bacterial colonization of infected wounds in pig skin (bacterial counts vs control) (S. aureus) | MMC99 (E. coli (CCUG 31246); 1% BHI) | MMC99 (E. coli (CCUG 31246); 50% SWF) | bacterial colonization of infected excision wounds (bacterial counts vs control) (MRSA (CCUG 41879)) | MMC99 (P. acnes (CCUG 1794T); 1% BHI) | MMC99 (P. acnes (CCUG 1794T); 50% SWF) | MMC99 (S. pyogenes (CCUG 4207); 1% BHI) | MMC99 (S. pyogenes (CCUG 4207); 50% SWF)
QSLARKLFQWLRNLRKVA [Peptide 220] | 70.8% | 37.0% | 11.6% | significant reduction in bacterial counts; also recorded: highly effective anti-infectious agents when applied locally | 3 µg/mL | >200 µg/mL | significant reduction in bacterial counts; also recorded: pronounced antimicrobial effect | <3 µg/mL | 100 µg/mL | <3 µg/mL | 50 µg/mL
RRLWRRWMRKVL [Peptide 232] | 96.9% | 66.6% | 33.2% | significant reduction in bacterial counts; also recorded: highly effective anti-infectious agents when applied locally | 5 µg/mL | >176 µg/mL | significant reduction in bacterial counts; also recorded: pronounced antimicrobial effect | 6 µg/mL | >200 µg/mL | <3 µg/mL | >200 µg/mL
